Reference: patent US20230390274A1 (EPIRIUM BIO INC., priority 2020, published 2023)
pIC50: −log10 of the molar value.

Target: 15-PGDH/HPGD (Homo sapiens (Human), UniProt P15428)
Test: hPGDH inhibitor screening biochemical assay
Conditions: 10 nM 15-PGDH/HPGD, 15 μM PGE2, 0.25 mM NAD; read-out: hPGDH: Average IC50
Method: A hydroxyprostaglandin dehydrogenase inhibition screening biochemical assay can be performed to assess the synthesized inhibitors provided herein. Provided herein is an exemplary biochemical assay for hPGDH inhibitor screening.
The in vitro biochemical assay can be performed in white, 384 plates in total 20 μl reaction volume consisting of 10 nM of 15-PGDH/HPGD (R&D System #5660-DH), 15 μM Prostaglandin E2 (Sigma, Cat #P5640-10MG) and 0.25 mM β-Nicotinamide adenine dinucleotide sodium salt (Sigma, Cat #N0632-5G) made in reaction buffer (50 mM Tris-HCl, pH 7.5, 0.01% Tween 20) at 10-point dose response curve for test/tool compounds. Briefly, 5 μl (4×) of compounds solution and 5 μl (final concentration, 10 nM) of enzyme solution is added to white 384 well plates and incubated for 10 mins at 37° C. 5 μl (4×) of Prostaglandin E2 and 5 μl (4×) of β-Nicotinamide adenine dinucleotide sodium salt is added to the wells and incubated for 10 mins at rt. Fluorescence is recorded at ex/em=340 nm/485 nm. The percentage (%) inhibition of enzyme activity was determined relative to […] (1% DMSO) and IC50 was calculated using GraphPad prism software (four parameter-variable slope equation).

Chain of 15-PGDH/HPGD (P15428 whole entry): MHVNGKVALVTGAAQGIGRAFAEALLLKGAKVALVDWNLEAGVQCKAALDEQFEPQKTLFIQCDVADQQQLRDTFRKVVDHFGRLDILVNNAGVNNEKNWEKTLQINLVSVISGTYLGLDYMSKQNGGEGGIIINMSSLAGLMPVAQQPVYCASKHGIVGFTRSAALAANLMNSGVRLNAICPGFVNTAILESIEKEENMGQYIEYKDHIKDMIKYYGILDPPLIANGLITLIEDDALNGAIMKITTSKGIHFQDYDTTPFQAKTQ

Row | Compound | pIC50
1 | Cc1cc(-n2ccc3cc(C(=O)N4CCCCC4)cnc32)cnc1N [A-208] | > 7.00
2 | O=C(c1cnc2c(ccn2-c2ccc3[nH]ncc3c2)c1)N1CCC(F)(F)CC1 [A-211] | > 7.00
3 | CC(C)(C)C(=O)NCCNC(=O)c1ccc(-n2ccc3cc(C(=O)N4CCC(F)(F)CC4)cnc32)cc1 [A-215, 4-(5-(4,4-difluoropiperidine-1-carbonyl)-1H-pyrrolo[2,3-b]pyridin-1-yl)-N-(2-pivalamidoethyl)benzamide] | > 7.00
4 | CC(C)NC(=O)c1ccc(-n2ccc3cc(C(=O)N4CCC(F)(F)CC4)cnc32)cc1 [A-216] | > 7.00
5 | CC(C)(C)CNC(=O)c1cncc(-n2ccc3cc(C(=O)N4CCC(F)(F)CC4)cnc32)c1 [A-217, 5-(5-(4,4-difluoropiperidine-1-carbonyl)-1H-pyrrolo[2,3-b]pyridin-1-yl)-N-neopentylnicotinamide] | > 7.00
6 | CCC(CC)NC(=O)c1cncc(-n2ccc3cc(C(=O)N4CCC(F)(F)CC4)cnc32)c1 [A-219, 5-(5-(4,4-difluoropiperidine-1-carbonyl)-1H-pyrrolo[2,3-b]pyridin-1-yl)-N-(pentan-3-yl)nicotinamide] | > 7.00
7 | CS(=O)(=O)NCCNC(=O)c1ccc(-n2ccc3cc(C(=O)N4CCC(F)(F)CC4)cnc32)cc1 [A-220, 4-(5-(4,4-difluoropiperidine-1-carbonyl)-1H-pyrrolo[2,3-b]pyridin-1-yl)-N-(2-(methylsulfonamido)ethyl)benzamide] | > 7.00
8 | NCCNC(=O)c1ccc(-n2ccc3cc(C(=O)N4CCC(F)(F)CC4)cnc32)cc1 [A-221, N-(2-aminoethyl)-4-(5-(4,4-difluoropiperidine-1-carbonyl)-1H-pyrrolo[2,3-b]pyridin-1-yl)benzamide] | > 7.00
9 | O=C(NCCO)c1ccc(-n2ccc3cc(C(=O)N4CCC(F)(F)CC4)cnc32)cc1 [A-223] | > 7.00
10 | N#Cc1ccc(-n2ccc3cc(C(=O)N4C[C@H](F)C[C@H](F)C4)cnc32)cc1 [A-224, 4-(5-((3R,5S)-3,5-difluoropiperidine-1-carbonyl)-1H-pyrrolo[2,3-b]pyridin-1-yl)benzonitrile] | > 7.00
11 | CS(=O)(=O)NC(=O)c1ccc(-n2ccc3cc(C(=O)N4CCC(F)(F)CC4)cnc32)cc1 [A-232, 4-(5-(4,4-difluoropiperidine-1-carbonyl)-1H-pyrrolo[2,3-b]pyridin-1-yl)-N-(methylsulfonyl)benzamide] | > 7.00

Further lines, results first:

Row | pIC50 | Compound
12 | > 7.00 | Nc1ncc(-n2ccc3cc(C(=O)N4CCCCC4)cnc32)cc1Cl [A-209]
13 | > 7.00 | C[C@@H]1C[C@H](C)CN(C(=O)c2cnc3c(ccn3-c3ccc(C(N)=O)cc3)c2)C1 [A-210, 4-(5-((3R,5S)-3,5-dimethylpiperidine-1-carbonyl)-1H-pyrrolo[2,3-b]pyridin-1-yl)benzamide]
14 | > 7.00 | N/C(=N\O)c1ccc(-n2ccc3cc(C(=O)N4CCCCC4)cnc32)cc1 [A-212]
15 | > 7.00 | N/C(=N\O)c1cccc(-n2ccc3cc(C(=O)N4CCCCC4)cnc32)c1 [A-213]
16 | > 7.00 | Cc1nc(-c2cccc(-n3ccc4cc(C(=O)N5CCCCC5)cnc43)c2)no1 [A-214]
17 | > 7.00 | CC(C)(C)NC(=O)c1ccc(-n2ccc3cc(C(=O)N4CCC(F)(F)CC4)cnc32)cn1 [A-218, N-(tert-butyl)-5-(5-(4,4-difluoropiperidine-1-carbonyl)-1H-pyrrolo[2,3-b]pyridin-1-yl)picolinamide]
18 | > 7.00 | O=C(NC(CO)CO)c1ccc(-n2ccc3cc(C(=O)N4CCC(F)(F)CC4)cnc32)cc1 [A-222]
19 | > 7.00 | CCNC(=O)c1ccc(-n2ccc3cc(C(=O)N4CCC(F)(F)CC4)cnc32)cc1 [A-225]
20 | > 7.00 | O=C(NC1CCNCC1)c1ccc(-n2ccc3cc(C(=O)N4CCC(F)(F)CC4)cnc32)cc1 [A-226]
21 | > 7.00 | O=C(NC1CNC1)c1ccc(-n2ccc3cc(C(=O)N4CCC(F)(F)CC4)cnc32)cc1 [A-227]
22 | > 7.00 | O=C(O)Cc1ccc(-n2ccc3cc(C(=O)N4CCC(F)(F)CC4)cnc32)cc1 [A-230, 2-(4-(5-(4,4-difluoropiperidine-1-carbonyl)-1H-pyrrolo[2,3-b]pyridin-1-yl)phenyl)acetic acid]
